Test [1] concerns colon (HCT116) tumor cell line. As to the kind of experiment: Methylene Blue Growth Inhibition Assay, HCT116. The format is cell-based. The note with it: Homo sapiens, HCT-116, 72 h; Cell Line HCT116, 3 days; read-out: MeB IC50. Summed up:
(§1)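 Growth inhibition is measured as methylene blue-stained biomass (OD 620 nm) after 3 days of compound treatment, relative to vehicle controls. Cells grow in high-glucose DMEM with 10% FBS and 0.3% final DMSO; IC50 comes from nonlinear regression.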

Test [2] has as its system breast tumor (MCF7) cell line. As to the kind of experiment: Methylene Blue Growth Inhibition Assay, MCF7. The note with it: Homo sapiens, 72 h; Cell Line MCF7, 3 days; read-out: MeB IC50. The format is cell-based. The gist of the method: as §1
The subject of test [3] is colon (RKO) tumor cell line. Put plainly: Methylene Blue Growth Inhibition Assay, RKO. The format is cell-based. The note with it: Homo sapiens, 72 h, 3 days, read-out: MeB IC50. The gist of the method: (§2)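 Cells were plated at line-specific densities (HFF 5,000, RKO 2,500, H460 2,000 cells/well) in DMEM with 10% FBS. Compound was added the next day (0.3% DMSO final) for 3 days at 37° C and 10% CO2. Biomass was read by methylene blue staining (OD 620) relative to vehicle, and IC50 was obtained by nonlinear regression.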

A further test has as its target T1, PLK1 kinase domain (Homo sapiens, UniProt P53350).
T1 construct: made in house; host or cells: baculovirus-infected T. ni insect cells
As to the kind of experiment: Assay for Inhibition of PLK1 (SPA enzyme activity). The format is biochemical. The note with it: 2 μM ATP, read-out: Ave pIC50 PLK Enzyme Inhibition (converted).

Test [4] deals with prostate (PC3) tumor cell line. As to the kind of experiment: Methylene Blue Growth Inhibition Assay, PC3. The format is cell-based. The note with it: Homo sapiens, 72 h; Cell Line PC3, 3 days; read-out: MeB IC50. The gist of the method:
as §1

In test [5] the test system is Normal Human foreskin fibroblasts (HFF). Put plainly: Methylene Blue Growth Inhibition Assay, HFF. The format is cell-based. The note with it: 72 h, Cell Line HFF, 3 days, read-out: MeB IC50. The gist of the method: as §2
For test [6], the system named is lung (H460) tumor cell line. Put plainly: Methylene Blue Growth Inhibition Assay, H460. The format is cell-based. The note with it: Homo sapiens, NCI-H460, 72 h; Cell Line H460, 3 days; read-out: MeB IC50. The gist of the method:
as §2

A further test deals with A549. Put plainly: Methylene Blue Growth Inhibition Assay, A549. The format is cell-based. The note with it: Homo sapiens; Cell Line A549; read-out: MeB IC50.

T1 sequence (P53350 21-346): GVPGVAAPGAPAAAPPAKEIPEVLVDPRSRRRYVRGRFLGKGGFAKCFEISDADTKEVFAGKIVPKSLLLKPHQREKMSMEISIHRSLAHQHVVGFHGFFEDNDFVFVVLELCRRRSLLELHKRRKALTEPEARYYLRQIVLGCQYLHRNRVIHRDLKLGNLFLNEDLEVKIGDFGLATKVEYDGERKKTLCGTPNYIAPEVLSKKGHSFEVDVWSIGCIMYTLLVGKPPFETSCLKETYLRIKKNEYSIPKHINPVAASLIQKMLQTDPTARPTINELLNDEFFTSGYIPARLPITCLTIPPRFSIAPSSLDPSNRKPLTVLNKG

Take `COc1cc2ncn(-c3cc(OCc4cc5c(cc4Cl)OCO5)c(C(N)=O)s3)c2cc1OC` [Example 91, 3-[(6-Chloro-1,3-dibenzodioxol-5-yl)methoxy]-5-(5,6-dimethoxy-1H-benzimidazol-1-yl)thiophene-2-carboxamide]: the IC50 is less than 1000 nM in test [1]; less than 1000 nM in test [2]; less than 1000 nM in test [3]; less than 100 nM at PLK1 kinase domain; 1000 to 10000 nM in test [4]; more than 10000 nM in test [5]. Moreover, the IC50 (in test [6]; in the test with A549) was less than 1000 nM each time.
`COc1cc2ncn(-c3cc(OCc4ccccc4OC(F)F)c(C(N)=O)s3)c2cc1OC` [Example 108, 3-{[2-(Difluoromethoxy)benzyl]oxy}-5-(5,6-dimethoxy-1H-benzimidazol-1-yl)thiophene-2-carboxamide]: the IC50 was less than 1000 nM in test [1]; less than 1000 nM in test [2]; less than 1000 nM in test [3]; less than 100 nM on PLK1 kinase domain; more than 10000 nM in test [4]; more than 10000 nM in test [5]. For the same compound, the IC50 (in test [6]; in the test with A549) was less than 1000 nM throughout.

Values taken from patent US20080269298A1, “Benzimidazol-1-YL-thiophene compounds for the treatment of cancer” (priority 2002, published 2008).
